Earlier results as cited in patent US20090214643A1, “IMPROVED PHARMACOKINETIC PROFILE OF BETA-ADRENERGIC INVERSE AGONISTS FOR THE TREATMENT OF PULMONARY AIRWAY DISEASES” (priority 2005, published 2009).

Experiments:
[1] = single dose, Corgard product insert

Question: Which “response of asthmatics to beta blocker administration” value (asthmatics; medical literature accounts) does the source give for `CC(C)(C)NCC(O)COc1cccc2c1CC(O)C(O)C2` (stereo not drawn) [nadolol] here?
Answer: The value was “serious pulmonary function reduction”.

Question: What about the “average Tmax (time to peak serum level)” value [1] of the same compound?
Answer: Its value is 3.5 h.

Question: Which “effect on airway function observed in asthmatics” value (asthmatics; literature 1962, 1964) does the source give for `CC(C)NCC(O)c1ccc2ccccc2c1` (stereo not drawn) [pronethalol] here?
Answer: Its value is “reduction in airway function”.
